According to patent US20060263802A1 (priority 2003, published 2006):

Experiments:
Type in all cases: binding
[1] = system: human monoclonal antibody CR57
[2] = system: human monoclonal antibody CRJA
[3] = system: human monoclonal antibody CR57; remark: listed apart in the source
[4] = system: human monoclonal antibody CRJA; remark: listed apart in the source
[5] = system: human monoclonal antibody CRJB
[6] = system: human monoclonal antibody CRJB; remark: listed apart in the source

| Sequence | Binding of CR57 to linear peptide (PEPSCAN-ELISA signal) [1] | Binding of CRJA to linear peptide (PEPSCAN-ELISA signal) [2] | Binding of CR57 (10 μg/ml) to looped/cyclic peptide (PEPSCAN-ELISA) [3] | Binding of CRJA (10 μg/ml) to looped/cyclic peptide (PEPSCAN-ELISA) [4] | Binding of CRJB to linear peptide (PEPSCAN-ELISA signal) [5] | Binding of CRJB (10 μg/ml) to looped/cyclic peptide (PEPSCAN-ELISA) [6] | Binding of CR57 (10 μg/ml) to looped/cyclic peptide (PEPSCAN-ELISA signal) [3] | Binding of CRJA (10 μg/ml) to looped/cyclic peptide (PEPSCAN-ELISA signal) [4] | Binding of CRJB (10 μg/ml) to looped/cyclic peptide (PEPSCAN-ELISA signal) [6] | further results |
| --- | --- | --- | --- | --- | --- | --- | --- | --- | --- | --- |
| QSSLLQQHMELLESS | 82 | 98 | 97 | 99 | 114 | 85 |  |  |  |  |
| DVHNQVSGVDLGLPN |  |  |  |  |  |  |  |  |  | Binding of human monoclonal antibody CR57 to linear peptide (PEPSCAN-ELISA signal) [1]: 117; Binding of human monoclonal antibody CRJA to linear peptide (PEPSCAN-ELISA signal) [2]: 124; Binding of CR57 to looped/cyclic peptide (PEPSCAN-ELISA signal) [3]: 120; Binding of CRJA to looped/cyclic peptide (PEPSCAN-ELISA signal) [4]: 99; Binding of human monoclonal antibody CRJB to linear peptide (PEPSCAN-ELISA signal) [5]: 133; Binding of CRJB to looped/cyclic peptide (PEPSCAN-ELISA signal) [6]: 113 |
| RGLYKSLKGACKLKL | 90 | 107 | 96 | 113 | 121 | 96 |  |  |  |  |
| LCGVLGLRLMDGTWV | 83 | 111 | 128 | 106 | 138 | 104 |  |  |  |  |
| EECLDALESIMTTKS | 82 | 98 | 105 | 105 | 120 | 70 |  |  |  |  |
| DPRYEESLHNPYPDY | 57 | 92 |  |  | 110 |  | 76 | 91 | 65 |  |
| DERGLYKSLKGACKL | 90 | 76 | 152 | 85 | 119 | 123 |  |  |  |  |
| NVLIPEMQSSLLQQH | 72 | 92 | 97 | 110 | 120 | 99 |  |  |  |  |
| PSTVFKDGDEAEDFV |  |  |  |  |  |  |  |  |  | Binding of human monoclonal antibody CR57 to linear peptide (PEPSCAN-ELISA signal) [1]: 104; Binding of human monoclonal antibody CRJA to linear peptide (PEPSCAN-ELISA signal) [2]: 105; Binding of CR57 to looped/cyclic peptide (PEPSCAN-ELISA signal) [3]: 118; Binding of CRJA to looped/cyclic peptide (PEPSCAN-ELISA signal) [4]: 113; Binding of human monoclonal antibody CRJB to linear peptide (PEPSCAN-ELISA signal) [5]: 143; Binding of CRJB to looped/cyclic peptide (PEPSCAN-ELISA signal) [6]: 101 |
| PSVADLDPYDRSLHS | 44 | 72 |  |  | 114 |  | 57 | 62 | 33 |  |
| NWKMAGDPRYEESLH | 58 | 69 |  |  | 101 |  | 94 | 93 | 78 |  |
| EILPSKGCLRVGGRC | 104 | 106 | 132 | 111 | 112 | 97 |  |  |  |  |
| ACKLKLCGVLGLRLM | 148 | 79 | 111 | 71 | 117 | 92 |  |  |  | binding of antibody CR57 to linear peptide (PEPSCAN OD) [1]: bound; strength of binding of CR57 (OD value compared with the other peptides / twice the average value) [1]: lower than twice the average value |
| FGKAYTIFNKTLMEA | 90 | 85 | 114 | 96 | 151 | 78 |  |  |  |  |
| AHYKSVRTWNEILPS | 112 | 106 | 106 | 104 | 160 | 106 |  |  |  |  |
| PENPRLGMSCDIFTN | 83 | 94 |  |  | 111 |  | 116 | 83 | 98 |  |
| FTCTGVVTEAENYTN | 83 | 91 |  |  | 125 |  | 123 | 96 | 96 |  |
| QTSNETKWCPPDQLV | 92 | 90 | 118 | 106 | 120 | 62 |  |  |  |  |
| TKSVSFRRLSHLRKL | 83 | 103 | 88 | 91 | 125 | 94 |  |  |  |  |
| RRLSHLRKLVPGFGK | 92 | 85 | 111 | 96 | 143 | 88 |  |  |  |  |
| NPYPDYRWLRTVKTT | 85 | 106 |  |  | 102 |  | 89 | 84 | 92 |  |
| PRYEESLHNPYPDYR | 73 | 103 |  |  | 115 |  | 92 | 99 | 79 |  |
| PYDRSLHSRVFPSGK | 86 | 104 |  |  | 120 |  | 134 | 113 | 90 |  |
| IYTILDKLGPWSPID | 44 | 83 |  |  | 97 |  | 66 | 78 | 58 |  |
| YNWKMAGDPRYEESL | 83 | 110 |  |  | 118 |  | 89 | 98 | 89 |  |
| IWMPENPRLGMSCDI | 98 | 87 |  |  | 110 |  | 329 | 152 | 156 | binding of antibody CR57 to looped/cyclic peptide (PEPSCAN OD) [3]: clearly bound |
| PRLGMSCDIFTNSRG | 72 | 108 |  |  | 112 |  | 87 | 96 | 89 |  |
| CGFVDERGLYKSLKG | 72 | 94 | 85 | 90 | 115 | 76 |  |  |  |  |
| PHVNGVFFNGIILGP | 93 | 117 | 112 | 107 | 173 | 134 |  |  |  |  |
